{"source": "patent US20190224214A1", "about": "“HUMAN GHRELIN O-ACYLTRANSFERASE INHIBITORS” (SYRACUSE UNIVERSITY, priority 2016, published 2019)", "key": {"[1]": {"target": "T1, hGOAT (Homo sapiens, UniProt Q96T53)", "T1 construct": "made in house; host or cells: Sf9 insect cells (membrane fraction)", "T1 sequence (Q96T53 1-435)": "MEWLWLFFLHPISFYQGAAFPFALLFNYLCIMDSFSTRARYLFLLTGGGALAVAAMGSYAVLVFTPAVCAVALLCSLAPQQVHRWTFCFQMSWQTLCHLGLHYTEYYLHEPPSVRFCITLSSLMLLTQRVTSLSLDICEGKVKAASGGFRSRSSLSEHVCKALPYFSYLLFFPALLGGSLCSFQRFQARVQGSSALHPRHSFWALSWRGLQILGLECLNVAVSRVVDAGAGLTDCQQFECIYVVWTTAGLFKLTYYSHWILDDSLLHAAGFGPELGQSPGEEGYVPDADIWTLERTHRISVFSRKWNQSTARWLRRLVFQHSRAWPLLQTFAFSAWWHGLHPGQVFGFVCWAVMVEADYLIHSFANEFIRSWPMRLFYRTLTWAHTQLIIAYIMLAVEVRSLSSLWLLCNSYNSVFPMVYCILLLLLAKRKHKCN", "assay": "fluorescence-based in vitro hGOAT activity assay (ghrelin octanoylation, HPLC readout)", "type": "biochemical", "description": "hGOAT was expressed and enriched in insect (Sf9) cell membrane fractions using a previously published procedure.\nPeptide substrates were labeled with acrylodan on a cysteine thiol and HPLC purified as previously reported.\nhGOAT activity assays were performed using a modification of previously reported protocols. For each assay, membrane fraction from Sf9 cells expressing hGOAT was thawed on ice and passed through an 18-gauge needle 10 times to homogenize. Assays were performed with ˜100 μg of membrane protein, as determined by Bradford assay. Membrane fraction was preincubated with 1 μM methoxy arachadonyl fluorophosphonate (MAFP) and inhibitor or vehicle as indicated in 50 mM HEPES pH 7.0 for 30 minutes at room temperature. Reactions were initiated with the addition of 500 µM octanoyl CoA and 1.5 μM fluorescently-labeled ghrelin mimetic, GSSFLCAcrylodan, for a total volume of 50 μL, and were incubated for 3 hours at room temperature in the dark. Reactions were stopped with the addition of 50 μL of 20% acetic acid in isopropanol, and solutions were clarified by protein precipitation with 16.7 μL of 20% trichloroacetic acid, followed by centrifugation (1,000×g, 1 minute). The supernatant was then analyzed by reverse phase HPLC, as previously described. Data reported are the average of three independent determinations, with error bars representing one standard deviation.\nFor inhibition experiments, reactions were performed and analyzed as described in the presence of either inhibitor or vehicle (DMSO or ethanol) as appropriate. The percent activity at each inhibitor concentration calculated from HPLC data using equations 1 and 2: […]\nTo determine the IC50 value, the plot of % activity versus [inhibitor] was fit to equation 3, with % activity0 denoting hGOAT activity in the presence of the vehicle alone: […]"}, "[2]": {"target": "T1, hGOAT", "assay": "Inhibitor reversibility assay (10-fold dilution after pretreatment at 3x IC50)", "type": "biochemical", "settings": "pretreatment at 3x IC50, then 10-fold dilution", "description": "The reversibility of hGOAT inhibition by the α-cyanoenone compounds 3 and 9 was determined by enzyme pretreatment with each inhibitor at three times the measured IC50 concentration, followed by a 10-fold dilution into either reaction buffer or buffer containing the same inhibitor concentration as the pretreatment.\nUndiluted homogenized membrane protein fraction containing hGOAT (protein concentration ˜7 μg/μL) was incubated with 10 μM MAFP and 3×IC50 of inhibitor or equal volume vehicle (DMSO or ethanol) for 30 minutes at room temperature. […] Reactions were incubated for 3 hours at room temperature in the dark and then analyzed as described above."}, "[3]": {"settings": "read-out: IC50, inhibition of hGOAT activity"}, "[4]": {"settings": "hGOAT activity, individual trials, read-out: IC50 (individual trials)"}, "[5]": {"settings": "hGOAT activity, averaged, read-out: IC50 (averaged)"}, "[6]": {"settings": "unit inferred, read-out: IC50, inhibition of hGOAT"}}, "note": "Like-named read-outs stand apart in the source and are kept apart here."}
{"smiles": "CCNC(=O)[C@]12CCC(C)(C)C[C@H]1[C@H]1C(=O)C=C3[C@@]4(C)C=C(C#N)C(=O)C(C)(C)[C@@H]4CC[C@@]3(C)[C@]1(C)CC2", "note": "[CDDO-EA]", "values": [{"measurement": "IC50", "setting": "[1]; [3]", "result": "8 ± 4", "unit": "µM"}, {"measurement": "reversibility of hGOAT inhibition", "setting": "[2]", "result": "reversible hGOAT inhibition"}]}
{"smiles": "CC1(C)CC[C@]2(C(=O)n3ccnc3)CC[C@]3(C)[C@H](C(=O)C=C4[C@@]5(C)C=C(C#N)C(=O)C(C)(C)[C@@H]5CC[C@]43C)[C@@H]2C1", "note": "[CDDO-Im, 1[2-cyano-3,12-dioxooleana-1,9-dien-28-oyl]imidazole, reference compound]", "values": [{"measurement": "IC50", "setting": "[1]; [3]", "result": "38 ± 6", "unit": "µM"}]}
{"smiles": "COC(=O)[C@]12CCC(C)(C)C[C@H]1[C@H]1C(=O)C=C3[C@@]4(C)C=C(C#N)C(=O)C(C)(C)[C@@H]4CC[C@@]3(C)[C@]1(C)CC2", "note": "[CDDO-Me, methyl 2-cyano-3,12-dioxooleana-1,9(11)dien-28-oate, reference compound]", "values": [{"measurement": "inhibition of hGOAT octanoylation activity (in words)", "setting": "[1]", "result": "exhibits inhibitory activity against hGOAT"}]}
{"smiles": "CC1(C)CC[C@]2(C(=O)O)CC[C@]3(C)[C@H](C(=O)C=C4[C@@]5(C)C=C(C#N)C(=O)C(C)(C)[C@@H]5CC[C@]43C)[C@@H]2C1", "note": "[Compound 5, reference compound]", "values": [{"measurement": "inhibition of hGOAT octanoylation activity (in words)", "setting": "[1]", "result": "lack of inhibition activity"}]}
{"smiles": "C[C@@]12CCC[C@H]1[C@@H]1CC[C@H]3CC(=O)C(C#N)=C[C@]3(C)[C@H]1CC2", "note": "[Compound 9, (5S,8S,9S,10S,13S,14S)-10,13-dimethyl-3-oxo-4,5,6,7,8,9,10,11,12,13,14,15,16,17-tetradecahydro-3H-cyclopenta[a]phenanthrene-2-carbonitrile]", "values": [{"measurement": "IC50", "setting": "[1]; [4]", "result": "7 ± 3", "unit": "µM"}, {"measurement": "IC50", "setting": "[1]; [3]", "result": "8 ± 2", "unit": "µM"}, {"measurement": "enhancement of inhibitor potency against hGOAT by the steroid scaffold", "setting": "[1]; α-cyanoenone 9 versus 16", "result": "~150", "unit": "fold"}, {"measurement": "reversibility of hGOAT inhibition", "setting": "[2]", "result": "reversible hGOAT inhibition"}]}
{"smiles": "C[C@@]12CCC[C@H]1[C@@H]1CC[C@H]3CC(=O)C(Br)=C[C@]3(C)[C@H]1CC2", "note": "[Compound 10, (5 S,8S,9S,10S,13S,14S)-10,13-dimethyl-3-oxo-4,5,6,7,8,9,10,11,12,13,14,15,16,17-tetradecahydro-3H-cyclopenta[a]phenanthrene-2-bromide]", "values": [{"measurement": "IC50", "setting": "[1]; [5]", "result": "83 ± 29", "unit": "µM"}, {"measurement": "IC50", "setting": "[1]; [4]", "result": "84 ± 35", "unit": "µM"}, {"measurement": "melting point", "result": "111 to 116", "unit": "°C"}]}
{"smiles": "C[C@@]12CCC[C@H]1[C@@H]1CC[C@H]3CC(=O)C=C[C@]3(C)[C@H]1CC2", "note": "[Compound 11, (2R,5S,8S,9S,10S,13S,14S)-10,13-dimethyl-4,5,6,7,8,9,10,11,12,13,14,15,16,17-tetradecahydro-3H-cyclopenta[a]phenanthren-3-one]", "values": [{"measurement": "IC50", "setting": "[1]; [5]", "result": "166 ± 58", "unit": "µM"}, {"measurement": "IC50", "setting": "[1]; [4]", "result": "201 ± 107", "unit": "µM"}, {"measurement": "IC50", "setting": "[1]; [6]", "result": "170 ± 60", "unit": "µM"}]}
{"smiles": "C[C@@]12CCC[C@H]1[C@@H]1CC[C@H]3CC(=O)CC[C@]3(C)[C@H]1CC2", "note": "[Compound 12, (5S,8S,9S,10S,13S,14S)-10,13-dimethyltetradecahydro-1H-cyclopenta[a]phenanthren-3(2H)-one]", "values": [{"measurement": "inhibition of hGOAT octanoylation activity (in words)", "setting": "[1]", "result": "loss of inhibition"}]}
{"smiles": "C[C@@]12CCC[C@H]1[C@@H]1CC[C@H]3CC(=O)[C@H](Br)C[C@]3(C)[C@H]1CC2", "note": "[Compound 13, (2R,5S,8S,9S,10S,13S,14S)-2-bromo-10,13-dimethyltetradecahydro-1H-cyclopenta[a]phenanthren-3(2H)-one]", "values": [{"measurement": "inhibition of hGOAT octanoylation activity (in words)", "setting": "[1]", "result": "unable to support inhibition"}]}
{"smiles": "CC(C)CCC[C@@H](C)[C@H]1CC[C@H]2[C@@H]3CCC4=CC(=O)CC[C@]4(C)[C@H]3CC[C@]12C", "note": "[Compound 14, (8S,9S,10R,13R,14S,17R)-10,13-dimethyl-17-((R)-6-methylheptan-2-yl)-6,7,8,9,10,11,12,13,14,15,16,17-dodecahydro-1H-cyclopenta[a]phenanthren-3(2H)-one]", "values": [{"measurement": "inhibition of hGOAT octanoylation activity (in words)", "setting": "[1]", "result": "abrogates inhibition of hGOAT"}]}
{"smiles": "N#CC1=CCCCC1=O", "note": "[Compound 16, 6-oxocyclohex-1-enecarbonitrile]", "values": [{"measurement": "IC50", "setting": "[1]; read-out: IC50, inhibition of hGOAT", "result": "1200 ± 200", "unit": "µM"}]}
{"smiles": "O=C1CCCC=C1Br", "note": "[Compound 17, 2-bromocyclohex-2-enone]", "values": [{"measurement": "IC50", "setting": "[1]; [6]", "result": "500 ± 100", "unit": "µM"}]}
{"smiles": "O=C1C=CCCC1", "note": "[Compound 18, cyclohexenone, reference compound]", "values": [{"measurement": "inhibition of hGOAT activity (in words)", "setting": "[1]; at concentrations up to 1 mM", "result": "does not inhibit hGOAT activity"}]}
{"smiles": "CCN1C(=O)C=CC1=O", "note": "[NEM, N-ethylmaleimide]", "values": [{"measurement": "inhibition of hGOAT octanoylation activity (in words)", "setting": "[1]", "result": "efficiently inhibits hGOAT"}, {"measurement": "reversibility of hGOAT inhibition", "setting": "[2]", "result": "classical irreversible hGOAT inhibition"}]}
{"smiles": "CC1(C)CC[C@]2(C)CC=C3[C@]4(C)CC[C@H]5C(C)(C)[C@@H](O)CC[C@]5(C)[C@H]4CC[C@@]3(C)[C@@H]2C1", "note": "[Taraxerol, taraxerol, reference compound]", "values": [{"measurement": "inhibition of hGOAT acylation activity (in words)", "setting": "[1]; at concentrations up to 100 (unit not given)", "result": "fails to inhibit"}]}
{"smiles": "CC1(C)CC[C@]2(C(=O)O)CC[C@]3(C)C(=CC[C@@H]4[C@@]5(C)CC[C@H](O)C(C)(C)[C@@H]5CC[C@]43C)[C@@H]2C1", "note": "[oleanic acid, reference compound]", "values": [{"measurement": "inhibition of hGOAT activity (in words)", "setting": "[1]; at concentrations up to 100 μM", "result": "negligible inhibition"}]}
{"smiles": "C[C@H]1[C@H](C)CC[C@]2(C(=O)O)CC[C@]3(C)C(=CC[C@@H]4[C@@]5(C)CC[C@H](O)C(C)(C)[C@@H]5CC[C@]43C)[C@H]12", "note": "[ursolic acid, reference compound]", "values": [{"measurement": "inhibition of hGOAT activity (in words)", "setting": "[1]; at concentrations up to 100 μM", "result": "negligible inhibition"}]}
